What all share (assay type): cell-based
Test [1] concerns the target T1, Protein cereblon/Son of sevenless homolog 1 (Homo sapiens, UniProt Q07889+Q96SW2). Briefly: PROTAC activity at CRBN/SOS1 in human A549 cells assessed as protein degradation at 1 uM incubated for 24 hrs by immunoblot analysis relative to control. (In western blotting, separated proteins are transferred to a membrane and probed.)
The target of test [2] is T1, Protein cereblon/Son of sevenless homolog 1. Briefly: PROTAC activity at CRBN/SOS1 in human A549 cells assessed as protein degradation at 0.1 uM incubated for 24 hrs by immunoblot analysis relative to control.
For test [3] the target is unchanged. Briefly: PROTAC activity at CRBN/SOS1 in human A549 cells assessed as protein degradation at 10 uM incubated for 24 hrs by immunoblot analysis relative to control.

T1 sequence (Q07889 whole entry, looked up): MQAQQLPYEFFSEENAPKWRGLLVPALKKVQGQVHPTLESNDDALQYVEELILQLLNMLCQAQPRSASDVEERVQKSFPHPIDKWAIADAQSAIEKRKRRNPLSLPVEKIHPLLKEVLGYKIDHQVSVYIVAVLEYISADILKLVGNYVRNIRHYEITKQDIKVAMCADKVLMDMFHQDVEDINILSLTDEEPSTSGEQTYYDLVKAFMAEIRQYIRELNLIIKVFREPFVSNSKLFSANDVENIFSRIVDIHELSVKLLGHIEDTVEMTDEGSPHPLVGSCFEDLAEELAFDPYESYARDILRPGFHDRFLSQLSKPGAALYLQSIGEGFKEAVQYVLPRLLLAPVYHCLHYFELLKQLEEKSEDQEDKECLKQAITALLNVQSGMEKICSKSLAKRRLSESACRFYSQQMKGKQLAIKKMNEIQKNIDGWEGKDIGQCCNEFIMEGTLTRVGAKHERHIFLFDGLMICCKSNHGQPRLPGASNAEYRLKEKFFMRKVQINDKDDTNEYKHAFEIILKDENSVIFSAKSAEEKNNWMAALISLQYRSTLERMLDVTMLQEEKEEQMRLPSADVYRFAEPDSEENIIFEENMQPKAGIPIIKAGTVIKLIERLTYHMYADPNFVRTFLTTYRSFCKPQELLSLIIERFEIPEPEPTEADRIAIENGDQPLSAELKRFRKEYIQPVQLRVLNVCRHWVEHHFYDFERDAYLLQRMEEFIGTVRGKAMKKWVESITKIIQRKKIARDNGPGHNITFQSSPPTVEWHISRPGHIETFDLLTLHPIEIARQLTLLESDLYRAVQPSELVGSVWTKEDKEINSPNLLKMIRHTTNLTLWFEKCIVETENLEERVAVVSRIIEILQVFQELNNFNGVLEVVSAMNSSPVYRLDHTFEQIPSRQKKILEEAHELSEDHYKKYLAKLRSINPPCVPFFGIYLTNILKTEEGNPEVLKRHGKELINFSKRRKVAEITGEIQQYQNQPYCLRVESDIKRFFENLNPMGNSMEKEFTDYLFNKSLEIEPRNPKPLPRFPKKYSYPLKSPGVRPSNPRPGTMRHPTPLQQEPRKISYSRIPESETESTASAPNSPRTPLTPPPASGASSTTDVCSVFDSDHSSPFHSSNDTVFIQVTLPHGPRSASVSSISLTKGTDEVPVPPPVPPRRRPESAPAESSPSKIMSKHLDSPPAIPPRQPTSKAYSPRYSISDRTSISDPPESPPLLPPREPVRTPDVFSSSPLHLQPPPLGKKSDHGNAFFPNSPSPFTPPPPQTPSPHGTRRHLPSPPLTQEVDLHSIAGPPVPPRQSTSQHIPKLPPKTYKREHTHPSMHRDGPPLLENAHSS
T1 sequence (Q96SW2 whole entry, looked up): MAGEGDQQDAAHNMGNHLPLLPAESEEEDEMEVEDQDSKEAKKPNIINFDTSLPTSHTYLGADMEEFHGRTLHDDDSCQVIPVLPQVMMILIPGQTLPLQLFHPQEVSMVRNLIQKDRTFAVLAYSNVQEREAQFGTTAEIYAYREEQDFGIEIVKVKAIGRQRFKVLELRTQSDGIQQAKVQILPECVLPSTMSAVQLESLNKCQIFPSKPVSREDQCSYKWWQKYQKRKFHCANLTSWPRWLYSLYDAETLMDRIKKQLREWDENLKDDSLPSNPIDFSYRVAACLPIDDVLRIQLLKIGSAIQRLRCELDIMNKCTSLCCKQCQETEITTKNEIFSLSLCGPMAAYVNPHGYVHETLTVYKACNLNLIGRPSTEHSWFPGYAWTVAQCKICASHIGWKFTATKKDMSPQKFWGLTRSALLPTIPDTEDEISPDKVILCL

Regarding `COc1cc2nc(C)nc(N[C@H](C)c3cc(N)cc(C(F)(F)F)c3)c2cc1O[C@H]1CCN(C(=O)CCCCCNc2cccc3c2C(=O)N(C2CCC(=O)NC2=O)C3=O)C1` (some centres not stated), the Activity is 5.7% in test [1], 14.3% in test [2] and 6.7% in test [3].

For `COc1cc2nc(C)nc(N[C@H](C)c3cc(N)cc(C(F)(F)F)c3)c2cc1O[C@H]1CCN(C(=O)CC(=O)Nc2ccc3c(c2)C(=O)N(C2CCC(=O)NC2=O)C3)C1` (some centres not stated), the Activity in test [1] came out at 6.1%; in test [2], 8.5%; in test [3], 7.5%.

Consider `COc1cc2nc(C)nc(N[C@H](C)c3cc(N)cc(C(F)(F)F)c3)c2cc1O[C@H]1CCN(C(=O)CCC(=O)Nc2cccc3c2C(=O)N(C2CCC(=O)NC2=O)C3)C1` (some centres not stated), for which the values for the Activity in test [1], in test [2] and in test [3] were 9.6%, 0% and 0%, respectively.

With `COc1cc2nc(C)nc(N[C@H](C)c3cc(N)cc(C(F)(F)F)c3)c2cc1O[C@H]1CCN(C(=O)CCCNc2ccc3c(c2)C(=O)N(C2CCC(=O)NC2=O)C3=O)C1` (some centres not stated), the Activity was found to be 8.9% in test [1], 4% in test [2] and 9.4% in test [3].

For the compound `COc1cc2nc(C)nc(N[C@H](C)c3cc(N)cc(C(F)(F)F)c3)c2cc1O[C@H]1CCN(C(=O)CCCCCCCCC(=O)Nc2cccc3c2C(=O)N(C2CCC(=O)NC2=O)C3)C1` (some centres not stated), the Activity in test [1] was 6.7%; in test [2], 6.4%; in test [3], 18.1%.

Consider `COc1cc2nc(C)nc(N[C@H](C)c3cc(N)cc(C(F)(F)F)c3)c2cc1O[C@H]1CCN(C(=O)CCCCCCC(=O)Nc2ccc3c(c2)CN(C2CCC(=O)NC2=O)C3=O)C1` (some centres not stated), for which the Activity in test [1] turned out to be 57.7%; in test [2], 3.9%; in test [3], 4.1%.

For `COc1cc2nc(C)nc(N[C@H](C)c3cc(N)cc(C(F)(F)F)c3)c2cc1O[C@H]1CCN(C(=O)CCCCCCCCC(=O)Nc2ccc3c(c2)CN(C2CCC(=O)NC2=O)C3=O)C1` (some centres not stated), the Activity in test [1] is 9.5%; in test [2] it was 0%; in test [3] it was 9%.

For `COc1cc2nc(C)nc(N[C@H](C)c3cc(N)cc(C(F)(F)F)c3)c2cc1O[C@H]1CCN(C(=O)CC(=O)Nc2cccc3c2CN(C2CCC(=O)NC2=O)C3=O)C1` (some centres not stated), the Activity amounted to 4.7% in test [1], 1% in test [2] and 7% in test [3].

Consider `COc1cc2nc(C)nc(N[C@H](C)c3cc(N)cc(C(F)(F)F)c3)c2cc1O[C@H]1CCN(C(=O)CCCCCCCCCCC(=O)Nc2cccc3c2CN(C2CCC(=O)NC2=O)C3=O)C1` (some centres not stated), for which the Activity in test [1], in test [2] and in test [3] was 0% each time.

For `COc1cc2nc(C)nc(N[C@H](C)c3cc(N)cc(C(F)(F)F)c3)c2cc1O[C@H]1CCN(C(=O)CCCCC(=O)Nc2ccc3c(c2)C(=O)N(C2CCC(=O)NC2=O)C3)C1` (some centres not stated), the Activity in test [1] came to 12.2%; in test [2], 2.7%; in test [3], 37.6%.

Take `COc1cc2nc(C)nc(N[C@H](C)c3cc(N)cc(C(F)(F)F)c3)c2cc1O[C@H]1CCN(C(=O)CNc2cccc3c2C(=O)N(C2CCC(=O)NC2=O)C3=O)C1` (some centres not stated): the Activity in test [1] was 2.6%; in test [2], 1.7%; in test [3], 0%.

With `COc1cc2nc(C)nc(N[C@H](C)c3cc(N)cc(C(F)(F)F)c3)c2cc1O[C@H]1CCN(C(=O)CCCNc2cccc3c2C(=O)N(C2CCC(=O)NC2=O)C3=O)C1` (some centres not stated), the Activity in test [1] stood at 0%; in test [2], 0.9%; in test [3] it was 8%.

As to `COc1cc2nc(C)nc(N[C@H](C)c3cc(N)cc(C(F)(F)F)c3)c2cc1O[C@H]1CCN(C(=O)CCCCCCC(=O)Nc2ccc3c(c2)C(=O)N(C2CCC(=O)NC2=O)C3)C1` (some centres not stated), the Activity is 37.6% in test [1], 7.9% in test [2] and 8.2% in test [3].

With `COc1cc2nc(C)nc(N[C@H](C)c3cc(N)cc(C(F)(F)F)c3)c2cc1O[C@H]1CCN(C(=O)CNc2ccc3c(c2)C(=O)N(C2CCC(=O)NC2=O)C3=O)C1` (some centres not stated), the Activity is 0% in test [1], 0% in test [2] and 1.5% in test [3].

For the origin of these results see ChEMBL document CHEMBL5550100, “Discovery of LHF418 as a new potent SOS1 PROTAC degrader” (Bioorg Med Chem, 2024).
